Results taken from patent US20260373497A1, “MOLECULAR MACHINES STIMULATE INTERCELLULAR CALCIUM WAVES AND CAUSE MUSCLE CONTRACTION” (William Marsh Rice University, priority 2022, published 2026).
“Also recorded” adds a separate entry of the source.

Tests used:
C2C12 myotubes = assay: C2C12 myotube contraction (image subtraction); type: cell-based, mouse; details: 400-nm light 1.5 s, image subtraction
Experimental: FIG. 35—Flow chart for the image subtraction process. First, the background is subtracted from the traces to account for drift during the course of the experiment (top row). After this, the traces are zeroed at the point of stimulation, and the area is calculated from the point of stimulation until the end of the experiment to yield the contraction magnitude. (bottom row).
FIGS. 40A-40D—MMs induce contraction in C2C12 myotubes, a) Confocal microscopy images of Fluo-4 and b) image subtraction of brightfield images to highlight calcium release and contractile motion in three stimulated myotubes (indicated by the red arrows) immediately before stimulation (t=0) for 1.5 s with 400-nm light, as well as 10 s and 120 s after stimulation. Scale bar=30 μm. c) Magnitude of contraction of MM 1 compared to DMSO, MM 2, MM 3, and cells treated with 10 μM U-73122. d) Mechanism of skeletal muscle cell contraction.
This method yielded images where the pixel intensity corresponds to movement over the course of the experiment (FIG. 40C), allowing us to easily visualize and quantify contraction.

C2C12 myoblasts = assay: Localization of MM 1 in C2C12 cells; type: cell-based, mouse; details: 45 minutes of incubation
HEK293 cells [1] = assay: Pharmacological blocking of MM 1-induced calcium responses; type: cell-based; details: MM 1 + light in calcium-free PBS
Experimental: FIGS. 14A-14J—Mechanistic study of MM-induced ICW. (a) Schematic of possible mechanisms by which calcium can enter the cytoplasm. Prepared with Biorender.com. (b) Confocal microscope images of HEK293 cells treated with MM 1, MitoTracker Green, ER Tracker Red, and CellMask Deep Red. Scale bars are both 20 μm and apply to the images in the same row. (c-h) Calcium waves elicited by MM 1-treated cells (c) in calcium-free PBS, (d) in RR (1 μM), (e) in Gd^3+ (50 μM), (f) after treatment of cells with Th (1 μM), (g) in Ry (100 μM), (h) in XeC (25 μM), (i) in U-73 (10 μM), (j) after pre-treatment of cells with Cyto D (2 μM). The solid line represents the calcium profiles averaged from six independent cells. The shaded region represents the standard error of the mean (n=6). Stimuli were presented after 30 s of imaging in each case, and the time of stimulus presentation is indicated by the vertical cyan line. […] All stimuli were delivered with a pulse width of 250 ms to a circular area of diameter 5 μm at a power ranging from 3.2×10^2 W cm^−2 to 5.1×10^2 W cm^−2. For all plots, the cyan line indicates the time of stimulus presentation. Controls and experimental groups were imaged and stimulated on the same day using the same conditions and with the same batch of cells. Error bars in the bar graphs represent the standard deviation of the mean of n=3 experiments (at least 6 stimulated cells per experiment). Statistical analyses were performed using a one-tailed Welch's t-test. * P-value<0.05, ** P-value<0.01, *** P-value<0.001, **** P-value<0.0001.
Imaging was conducted in imaging extracellular buffer (iECB; 119 mM NaCl, 5 mM KCl, 10 mM HEPES, 2 mM CaCl2, 1 mM MgCl2 (pH 7.2); 320 mOsm). Imaging in calcium-free medium was conducted in phosphate-buffered saline. Cells were prepared for imaging by seeding a 35 mm Ibidi imaging dish with ~50,000 cells in 1 mL of DMEM, and grown at 37 °C, 5% CO2 for 2 days. Prior to imaging, cells were incubated with dyes and/or molecules resuspended in complete growth medium at the appropriate concentration (MM 1 (8 μM), MM 2 (8 μM), MM 3 (24 μM), MM 4 (8 μM), Fluo-4 (2 μM)). MM and Fluo-4 were loaded into cells for 45 min. Cells treated with thapsigargin were exposed for 30 min after MM and Fluo-4 loading. Cells treated with organelle-targeting dyes were exposed for 5 min after MM loading. Ruthenium red and Gd^3+ were included in the imaging medium during stimulation and were associated with cells for 10 min prior to imaging. At the end of incubation, this medium was replaced with the iECB. Unless otherwise specified, all experiments were replicated in triplicate.
Pharmacological Experiments: In pharmacological blocking experiments, cells were loaded with MM and Fluo-4 as previously described. Typical imaging experiments in previously described extracellular buffer were then conducted as a positive control. Then, the imaging buffer was replaced, and the cells were treated as required for each experiment. After a brief recovery period, the cells were imaged again, and six different cells were stimulated. Experiments in calcium-free imaging buffer used phosphate buffered saline. Thapsigargin (Th: 1 μM) and Cytochalasin D (Cyto D; 2 μM) were incubated with cells in complete growth medium for 1 h (Th) or 2 h (Cyto D) before imaging. Ruthenium red (RR; 1 μM), gadolinium (Gd; 50 μM), ryanodine (Ry; 100 μM), xestospongin C (XeC; […]), and U-73122 (U-73; 10 μM) were administered directly into the imaging medium. Cells were incubated in the medium for ~5 min prior to imaging. Traces presented are representative results across at least six cells from single experiments, while bar graphs represent the average results across at least three distinct experiments.

HEK293 cells [2] = assay: Assessment of stimulation toxicity (apoptosis, necrosis, PI uptake); type: cell-based
Text: Assessment of Stimulation Toxicity: The purpose was to use MM to interact with cell signaling. However, several previous studies by the group have explored the same or similar molecules for inducing cell permeabilization and death (Santos et al., 2022; Alaya-Orozco et al., 2020; Gunasekera et al., 2020). These studies used minutes-long light doses rather than the millisecond-scale doses employed in this work. Nevertheless, assessing the effects of MM stimulation on cell viability remains imperative.
Potentially toxic effects of MM stimulation on cells were assessed in several ways. First, qualitative analysis of stimulated cells can be used to assess toxicity. For these experiments, HEK293 cells were treated with MM 1 and prepared as was typical for stimulation experiments.
Second, once a suitable window of stimulation power had been identified, the effects of stimulation on cells were compared to healthy cells and several positive controls representing mechanisms of cell death. For these experiments, cells were loaded with Fluo-4, CellMask cell membrane labeling dye, and MM 1 and were imaged in the presence of cell-impermeant viability dye propidium iodide (PI; 1 μg mL^−1). The onset of apoptotic cell death in imaged colonies was confirmed by the observation of pyknosis (cell shrinkage) (Hajnoczky et al., 2003), the uptake of small amounts of PI, and the enhanced fluorescence of Fluo-4 in the colony (FIG. 8A).
Finally, to account for potential aftereffects of stimulation, isolated HEK293 colonies were grew in a grid pattern by photolithographically patterning polydimethylsiloxane onto Ibidi imaging dishes. Colonies were seeded with 25,000 cells cm^−2. Two days after seeding, cells were treated with MM 1 and Fluo-4 using typical protocols (see Example 6), and 10 selected cells were stimulated in selected colonies. After 24 h, these colonies were imaged again in the presence of 1 μg mL^−1 PI to observe any effects of MM stimulation on growth, cell stress, or viability.

Compound | Myotube contraction (C2C12 myotubes) | Cell permeation (C2C12 myoblasts) | Calcium response amplitude in absence of extracellular calcium (HEK293 cells [1]) | Cell toxicity after typical stimulation (HEK293 cells [2]; MM 1 8 μM, 3.2×10^2 W cm^−2 for 250 ms) | Cell toxicity at reduced light dose (HEK293 cells [2]; MM 1, 3.2×10^2 W cm^−2 for 1 s, 30 min) | Cell toxicity at high light dose (HEK293 cells [2]; MM 1, 6.4×10^2 W cm^−2 for 4 s) | PI uptake of stimulated colonies 24 h after stimulation (HEK293 cells [2]; MM 1, 10 cells stimulated per colony, 1 μg mL^−1 PI) | Necrotic cell death under UV/DAPI-filter LED (HEK293 cells [2]; MM 1, 395/25 nm, 166 mW cm^−2, 5 min)
CC1Cc2cc(NCCN(C)C)c3ccccc3c2C1=C1c2ccccc2-c2ccccc21 (stereo not drawn) [MM 3] | Strong cellular contraction did not occur | – | – | – | – | – | – | –
CC1Cc2ccc3ccccc3c2C1=C1c2ccccc2Sc2cc(NCCN(C)C)ccc21 (stereo not drawn) [MM 1] | strong contraction in C2C12 myotubes | permeate through the cell membrane after 45 minutes of incubation | showed no differences in response amplitude compared to a positive control in calcium-containing medium | cells recovered from stimulation and showed no signs of apoptosis or necrosis | strong calcium responses from cells without observable toxicity; also recorded: the calcium signal has returned to homeostatic levels, and the stimulated cell and surrounding cells display no apparent damage | membrane blebbing and calcium accumulation over a 30 min period, indicating cell death; also recorded: membrane blebbing and runaway calcium accumulation; also recorded: the calcium signal has not returned to homeostasis, and membrane blebbing is apparent | indistinguishable from untreated colonies | Necrotic cell death was observed
